Results from patent US9814787B2, “Luciferin amides” (University of Massachusetts, priority 2013, dated 2017).

Legend:
FAAH [1] = target: T1, FAAH (Homo sapiens, UniProt O00519); assay: In vitro FAAH assay: luciferin amide treated with recombinant FAAH, then R218K luciferase, bioluminescence; assay type: biochemical
T1 construct: purchased Cayman Chemical
T1 sequence (O00519 1-579): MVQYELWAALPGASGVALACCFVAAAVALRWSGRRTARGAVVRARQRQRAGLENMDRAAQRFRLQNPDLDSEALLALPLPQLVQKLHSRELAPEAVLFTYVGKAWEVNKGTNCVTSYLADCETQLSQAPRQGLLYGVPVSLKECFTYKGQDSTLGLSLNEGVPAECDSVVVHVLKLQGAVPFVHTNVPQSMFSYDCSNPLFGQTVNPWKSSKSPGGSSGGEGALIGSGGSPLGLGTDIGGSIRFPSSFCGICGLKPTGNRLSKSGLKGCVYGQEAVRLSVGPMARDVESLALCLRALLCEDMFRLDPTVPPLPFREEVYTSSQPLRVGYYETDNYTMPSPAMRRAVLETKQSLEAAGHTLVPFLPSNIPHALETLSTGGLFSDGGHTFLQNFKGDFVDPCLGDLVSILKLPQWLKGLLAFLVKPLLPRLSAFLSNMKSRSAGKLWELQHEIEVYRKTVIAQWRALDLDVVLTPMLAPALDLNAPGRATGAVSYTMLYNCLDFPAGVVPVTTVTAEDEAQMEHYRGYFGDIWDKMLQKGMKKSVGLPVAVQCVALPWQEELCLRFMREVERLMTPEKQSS
Protocol: Recombinant FAAH, FAAH assay buffer, and FAAH inhibitors URB-597, PF-750, and PF-3845 were purchased from Cayman Chemical.
Bioluminescence assays were performed in either a Turner Veritas luminometer or a Xenogen IVIS-100 imaging system. For Veritas experiments, white 96-well plates were used (Costar 3912). For IVIS experiments, black 96-well plates were used (Costar 3915).
Luciferin amides (50 μM) were treated with FAAH and FAAH buffer (Cayman Chemical) in the presence or absence of 50 μM FAAH inhibitor URB-597 or 50 μM luciferase inhibitor 2-(4′-methoxyphenyl)benzothiazole. After 10 minutes at room temperature, R218K mutant firefly luciferase was added at a concentration of 3 μg/mL and bioluminescence was detected on a Turner Veritas luminometer.
Four luciferin amides (50 μM), i.e., Compounds 1, 9, 10, and 25, were treated with a buffer alone, a buffer containing FAAH, a buffer containing FAAH+50 μM URB-597 (i.e., a FAAH inhibitor), or a buffer containing FAAH+50 μM luciferase inhibitor 2-(4′-methoxyphenyl)benzothiazole. After 10 minutes at room temperature, R218K luciferase was added at a concentration of 3 μg/mL and bioluminescence was detected on a Turner Veritas.
Three luciferin amides (50 μM), i.e., Compounds 2, 9, and 25, were treated with a buffer alone, a buffer containing FAAH, a buffer containing FAAH 1:10 (i.e., a ten-fold dilution of FAAH), a buffer containing pig liver esterase (PLE), or a buffer containing PLE 1:10 (i.e., a ten-fold dilution of PLE). After one hour at room temperature, R218K luciferase was added at a concentration of 3 μg/mL and bioluminescence was detected on a Turner Veritas.

[2] = tested on: FVB mice expressing luciferase in brain tissue; assay: In vivo bioluminescence imaging in brains of FVB mice injected with AAV9-luc+ in the striatum; conditions: for light emission in brains of live mice (qualitative): mouse, in vivo
Protocol: (§1) FVB mice were injected with AAV9-luc+ in the brain striatum. Bioluminescence assays were performed approximately nine months after AAV injection. Each luciferin amide was diluted into PBS to the indicated concentration from a 50 mM DMSO stock solution and filtered (0.22 μm) prior to intraperitoneally injection (0.1 mL per mouse). Mice were anesthetized with isoflurane (2% in 1 L/min oxygen) and images acquired on a Xenogen IVIS 100 imaging system and analyzed with Living Image software.
Certain luciferin amides described herein were tested to determine whether they would image well in live mice. For these studies, FVB mice were injected with adeno-associated virus 9 (AAV9)-luciferase constructs into the brain striatum.
Bioluminescence imaging (BLI) in the brain is more challenging than imaging in the rest of the organism, in part because a luciferase substrate (i.e., a luciferin) must cross the blood-brain barrier. Therefore, the ability of a synthetic luciferin (i.e., Compound 9's corresponding luciferin (CycLuc1)) to allow bioluminescence imaging in these mice, as compared to the native firefly luciferase substrate (i.e., D-luciferin) was first tested. Specifically, each substrate was injected intraperitoneally (IP) in PBS at a volume of 0.1 mL, D-luciferin being at a concentration of 100 mM and CycLuc1 being at a concentration of 5 mM. […] CycLuc1 was then injected at a 320-fold lower dose (0.06 mL of 0.5 mM) than D-luciferin.
Specifically, Compound 9 (i.e., CycLuc1 amide) was injected at 0.5 mM in 0.5% DMSO/PBS (0.06 mL).
In this figure, mice in the top row were treated with luciferin amides in the amounts indicated in the figure, and the mice in the bottom row were the same mice that were imaged one day later using a standard dose of D-luciferin.

FAAH [3] = target: T2, FAAH (Mus musculus, UniProt O08914); assay: In vivo FAAH inhibition assay with PF-3845; parameters: species or system mice; conditions: for total photon flux, average: 0.1 mM (0.1 mL) IP
T2 construct: metabolized into CycLuc1 by endogenous FAAH activity; from tissue; host or cells: brain (striatum) of live FVB mice expressing AAV9-delivered luciferase
T2 sequence (O08914 1-579): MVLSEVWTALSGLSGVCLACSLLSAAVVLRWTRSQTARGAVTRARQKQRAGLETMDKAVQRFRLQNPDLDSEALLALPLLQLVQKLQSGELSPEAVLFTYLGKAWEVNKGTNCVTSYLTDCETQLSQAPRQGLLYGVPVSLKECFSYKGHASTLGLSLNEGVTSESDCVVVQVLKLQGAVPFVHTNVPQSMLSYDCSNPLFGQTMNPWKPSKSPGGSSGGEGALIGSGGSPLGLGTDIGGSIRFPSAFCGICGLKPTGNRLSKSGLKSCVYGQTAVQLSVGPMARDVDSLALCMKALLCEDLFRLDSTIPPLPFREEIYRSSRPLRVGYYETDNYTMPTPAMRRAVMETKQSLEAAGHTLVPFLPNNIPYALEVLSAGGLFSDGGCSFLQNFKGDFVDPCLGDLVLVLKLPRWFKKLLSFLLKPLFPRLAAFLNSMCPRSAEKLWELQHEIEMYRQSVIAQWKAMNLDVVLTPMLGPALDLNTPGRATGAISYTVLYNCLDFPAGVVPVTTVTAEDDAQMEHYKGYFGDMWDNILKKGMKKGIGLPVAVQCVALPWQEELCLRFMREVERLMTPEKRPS
Protocol: as §1
Mice were injected intraperitoneally with 1 mg/mL of a specific FAAH inhibitor PF-3845 dissolved in 18:1:1 PBS:ethanol:emulphor (0.1 mL), or with an equal volume of 18:1:1 PBS:ethanol:emulphor control vehicle. Thirty minutes after injection, the mice were imaged as described above.
FAAH is highly expressed in most tissues, particularly in the brain. To determine whether the luciferin amides are cleaved exclusively by FAAH in the brain tissue, eight FVB mice expressing AAV9-luciferase in the striatum were divided into two groups: (1) four mice were injected IP with 1 mg/mL of a specific FAAH inhibitor PF-3845 dissolved in 18:1:1 PBS:ethanol:emulphor (0.1 mL), and (2) four mice were treated with an equal volume of 18:1:1 PBS:ethanol:emulphor control vehicle without PF-3845. After 30 minutes, one mouse from each group was IP injected with 5 mM CycLuc1 (i.e., Compound 9's corresponding luciferin) in PBS (0.1 mL), and three were injected with 0.1 mM Compound 5 in 0.2% DMSO/PBS (0.1 mL). The mice were imaged 10 minutes after substrate injection. Mice in the right panel were group (1) (i.e., treated with a FAAH inhibitor) and mice in the left panel were from group (2) (i.e., without being treated with a FAAH inhibitor).

[4] = tested on: live CHO cells expressing R218K luciferase; assay: Intact cell FAAH assay, light emission from live CHO cells expressing R218K luciferase; assay type: cell-based, Chinese hamster; conditions: 50 μM FAAH inhibitor
Protocol: Chinese hamster ovary-K1 (CHO-K1) cells were grown in a CO2 incubator at 37° C. with 5% CO2 and were cultured in F-12K Nutrient Mixture (GIBCO) supplemented with 10% fetal bovine serum and 100 U/mL penicillin/streptomycin.
Wild-type and R218K mutant luciferases were cloned into the BamHI-NotI site of pCDNA 3.1 and transiently transfected into CHO-K1 cells with Lipofectamine 2000 in 96-well tissue culture-treated plates for intact cell assays, or 6-well plates for lysed cell assays. For intact cells, 0.075 μg plasmid/well was transfected; for lysed cells, 2.25 μg plasmid/well was transfected.
[…] The cells were incubated for one hour in the CO2 incubator at 37° C. Cells were then washed with Hank's balanced salt solution (HBSS) and overlaid with 60 μL a luciferin amide substrate in HBSS. Imaging assays were performed 3 minutes after substrate addition, with final substrate concentrations ranging from 0.122 to 250 μM.
Seven luciferin amides, i.e., Compounds 1-4, 9, 10, and 25, were tested in live CHO cells expressing R218K luciferase at various concentrations (i.e., 0.12 μM, 0.25 μM, 0.5 μM, 1 μM, 2 μM, 4 μM, 8 μM, 16 μM, 31 μM, 62 μM, 125 μM, and 250 μM).
Compound 25 and Compound 10, as well as their corresponding luciferins (i.e., D-Luciferin and CycLuc2, respectively), were tested in live CHO cells expressing wild-type (WT) luciferase or R218K (RK) luciferase at various concentrations (i.e., 0.125 μM, 0.25 μM, 0.5 μM, 1 μM, 2 μM, 4 μM, 8 μM, 16 μM, 31 μM, 62 μM, 125 μM, and 250 μM).

CNc1ccc2nc(C3=N[C@@H](C(N)=O)CS3)sc2c1 [Compound 1, (S)-4,5-dihydro-2-(6-(methylamino)benzo[d]-thiazol-2-yl)thiazole-4-carboxamide]
increase in bioluminescence signal on addition of FAAH versus buffer (FAAH [1]; 50 μM luciferin amide, 10 minutes at room temperature, R218K luciferase 3 μg/mL): 167 fold | light emission in brains of live mice (qualitative) [2]: relatively strong light emission

CC(C)CNc1ccc2nc(C3=N[C@@H](C(N)=O)CS3)sc2c1 [Compound 3, (S)-4,5-dihydro-2-(6-(isobutylamino)benzo[d]-thiazol-2-yl)thiazole-4-carboxamide]
light emission in brains of live mice (qualitative) [2]: relatively strong light emission

NC(=O)[C@H]1CSC(c2nc3ccc(NCCCO)cc3s2)=N1 [Compound 4, (S)-2-(6-(3-hydroxypropylamino)benzo[d]-thiazol-2-yl)-4,5-dihydrothiazole-4-carboxamide]
light emission in brains of live mice (qualitative) [2]: relatively weak light emission

CC(C)Nc1ccc2nc(C3=N[C@@H](C(N)=O)CS3)sc2c1 [Compound 5, (S)-4,5-dihydro-2-(6-(isopropylamino)-benzo[d]thiazol-2-yl)thiazole-4-carboxamide]
Photon flux after treatment with luciferin analogs ([2]; 4 μM): 2.97E+05 p/s | signal as share of the D-luciferin signal ([2]; 4 μM, 25,000-fold lower dose): ~30% | Photon flux after treatment with luciferin analogs ([2]; 20 μM): 1.95E+06 p/s | Photon flux after treatment with luciferin analogs ([2]; 100 μM): 7.84E+06 p/s | Photon flux after treatment with luciferin analogs ([2]; 500 μM): 1.19E+07 p/s | photon flux relative to standard 100 mM D-luciferin ([2]; IP, 20 μM, 5000-fold lower dose): higher photon flux than the standard 100 mM D-luciferin | bioluminescence signal higher than standard D-luciferin imaging conditions ([2]; doses 200-fold and 1000-fold lower than standard D-luciferin dose): 5 fold | total photon flux, average (FAAH [3]; group (1) treated with PF-3845): 4.4×10^4 p/s | total photon flux, average (FAAH [3]; group (2) vehicle without PF-3845): 1.3×10^7 p/s | change of light output by FAAH inhibitor PF-3845 (group 1 vs group 2) (FAAH [3]; PF-3845 1 mg/mL (0.1 mL) IP 30 minutes before substrate): reduced by nearly three orders of magnitude

CCNc1ccc2nc(C3=N[C@@H](C(N)=O)CS3)sc2c1 [Compound 6, (S)-2-(6-(ethylamino)benzo[d]thiazol-2-yl)-4,5-dihydrothiazole-4-carboxamide]
light emission in brains of live mice (qualitative) [2]: relatively strong light emission

CCNc1ccc2nc(C3=N[C@@H](C(=O)NC)CS3)sc2c1 [Compound 7, (S)-2-(6-(ethylamino)benzo[d]thiazol-2-yl)-4,5-dihydro-N-methylthiazole-4-carboxamide]
light emission in brains of live mice (qualitative) [2]: relatively strong light emission

NC(=O)[C@H]1CSC(c2nc3cc4c(cc3s2)NCCC4)=N1 [Compound 14, (S)-2-(5,6,7,8-tetrahydrothiazolo[4,5-g]quinolin-2-yl)-4,5-dihydrothiazole-4-carboxamide]
Photon flux after treatment with luciferin analogs ([2]; 100 μM): 1.43E+07 p/s | improved signal over 100 mM D-luciferin ([2]; 0.1 mM): more than 10 fold

CN1CCc2cc3nc(C4=N[C@@H](C(=O)O)CS4)sc3cc21 [CycLuc2, reference compound]
effect of FAAH inhibitors URB-597, PF-750 and PF-3845 on light output [4]: no significant effect

O=C(O)[C@H]1CSC(c2nc3ccc(O)cc3s2)=N1 [D-luciferin, reference compound]
Photon flux after treatment with luciferin analogs ([2]; 100 mM): 1.21E+06 p/s

NC(=O)c1cccc(-c2cccc(OC(=O)NC3CCCCC3)c2)c1 [URB-597, reference compound]
inhibition of the FAAH-dependent bioluminescence signals of Compounds 1, 9, 10, 25 by FAAH inhibitor (FAAH [1]; 50 μM URB-597, 50 μM luciferin amide): more than 100 fold

Me2N-luciferin methyl ester [reference compound]
light emission in brains of live mice (qualitative) [2]: relatively weak light emission
